# Results taken from patent US8993721B2, “Peptides for targeting apoptotic cells and uses thereof” (Kyungpook National University Industry-Academic Cooperation …, priority 2008, dated 2015).
# “Also recorded” adds a separate entry of the source. Where no end group is shown, it is not given here.
# Tests used:
# [1] = tested on: etoposide-treated apoptotic A549 cells; assay: FACS analysis of binding to apoptotic cells (Example 9-3); assay type: cell-based, human
# Procedure: As another way of confirming the binding of the polypeptide of the present invention (ApoPep-2) to apoptotic cells, apoptotic cells were treated with the peptide, labeled with fluorescein, and the binding was confirmed through FACS analysis. First, apoptosis was induced by treating A549 cells with 50 μM etoposide for 20 hours. The apoptotic cells or normal cells were reacted with ApoPep-2 (10 μM) or a control peptide at the same concentration, labeled with fluorescein, at 4° C. or 37° C. for 1 hour. Further, the cells were reacted with fluorescein-labeled annexin V at room temperature for 15 minutes. After washing cells with PBS, FACS analysis was performed using a FACS instrument (Becton Dickinson).
# [2] = tested on: A549 tumor xenotransplanted in nude mice; assay: In vivo fluorescence imaging of targeting of apoptotic cells in tumor (Example 10); set-up: species or system mouse; details: fluorescein-labeled; large tumor (1 cm or larger)
# apoptotic A549 cells = assay: Competitive inhibition of binding to apoptotic cells by annexin V treatment (Example 9-2); assay type: cell-based, human; details: annexin V 1000 μM pre-treatment
# Procedure: In order to further investigate the binding properties of the polypeptide of the present invention (ApoPep-2) to apoptotic cells, competitive inhibition by annexin V was measured. To this end, first, apoptotic A549 cells were pre-treated with annexin V, not labeled with fluorescence, at concentrations of 0, 500 and 1000 μM. Then, after reacting the cells with fluorescence-labeled annexin V under the same condition as described in Example <9-1>, the binding of the cells was observed under a fluorescence microscope.
# Further, apoptotic A549 cells were pre-treated with annexin V, not labeled with fluorescence, at a concentration of 1000 μM. Then, after reacting the cells with fluorescence-labeled peptide under the same condition as described in Example <9-1>, the binding of the cells was observed under a fluorescence microscope.
# [3] = tested on: trail-treated apoptotic MDA-MB231 cells; assay: Microscopic observation of binding of the peptide to apoptotic cells, MDA-MB231 (Example 9-1); assay type: cell-based
# Procedure: (§1) Cells were cultured in chamber slide (Nunc) and treated with 50 μM etoposide (Sigma) for 16 hours (A549 cells) or 50 ng/ml trail (R&D Systems) for 16 hours (MDA-MB231 cells) to induce apoptosis. The cells were cultured in RMPI-1640 medium (A549 cells) or DMEM-High (MDA-MB231 cells) containing antibiotics (penicillin and streptomycin) and 10% FBS. All the cells were sub-cultured every 3 or 4 days. The apoptosis-induced apoptotic cells were washed with PBS and blocked with 1% BSA at 37° C. for 30 minutes. Then, the cells were reacted with 10 μM of the peptide labeled with fluorescein, at 4° C. for 1 hour. After washing, the cells were reacted with an annexin V reaction buffer containing Alexa594-labeled annexin V (Invitrogen) at room temperature for 15 minutes. The cells were washed with PBS and then fixed with 4% paraformaldehyde for 5 minutes. After treatment with a mounting solution containing the DAPI nuclear stain, images of the cells were obtained under a fluorescence microscope.
# [4] = tested on: etoposide-treated apoptotic A549 cells; assay: Microscopic observation of binding of the peptide to apoptotic cells, A549 (Example 9-1); assay type: cell-based, human
# Procedure: as §1
# [5] = tested on: A549 tumor xenotransplanted in nude mice; assay: In vivo fluorescence imaging of targeting of apoptotic cells in tumor (Example 10); set-up: species or system mouse
# Procedure: Nude mice in which tumor was xenotransplanted using A549 cells were prepared as in Example <8-1>. The mice were grouped into a doxorubicin (Sigma) treated group (Dox+) and untreated group (Dox−). The treated group was treated with doxorubicin (5 mg/kg) one time, 12 hours prior to injection of the peptide. At the tail vein of each mouse, the polypeptide of the present invention or a control peptide, labeled with fluorescein or Cy7.5 near-infrared fluorescent dye, was injected at a final concentration of 50 μM, under isoflurane anesthesia. Following the injection, in vivo fluorescence images were obtained 0.5 hours and every hour, from 1 hour to 4 hours, after the injection, using an Optix exPlore instrument (ART). The images were standardized using the software provided with the instrument.
# [6] = tested on: heart of myocardial ischemic rat (ischemia/reperfusion model); assay: Molecular imaging of myocardial ischemia (Example 7); assay type: in vivo; details: Cy7.5-labeled peptide i.v. 2 hours after reperfusion; imaged 2 hours after injection
# Procedure: A myocardial ischemia model was established by occluding the coronary artery of a rat, followed by reperfusion (ischemia/reperfusion model). For the operation, a rat was anesthetized by intra-abdominally injecting 10 mg of phenobarbital and, followed by endobronchial intubation, a ventilator was connected. Thereafter, the thorax was cut open to expose the heart. The left anterior descending coronary artery was occluded for 30 minutes using a suture and, then, the blood was allowed to circulate. For a control group (Sham), the same operation was performed, except for the occlusion. Two hours after the reperfusion, the peptide having an amino sequence represented by SEQ ID NO: 1 (ApoPep-1), labeled with Cy7.5 NIR fluorescence, was intravenously injected to the rats of the myocardial ischemia group and the control group. Two hours after the peptide injection, NIR images of the heart portion were obtained. Then, NIR images were obtained after isolating the heart.
# [7] = tested on: etoposide-treated apoptotic cells (A549, H460, HeLa, L132, RAW); assay: Microscopic observation of binding of the peptide to apoptotic cells (Example 3-1); assay type: cell-based
# Procedure: Cells were cultured in chamber slide (Nalgene Nunc) and treated with 50 μM etoposide (Sigma) for a given period of time (A549 and HeLa cells: for 15 hours, H460 cells: 24 hours, L132 cells: 3 hours, RAW cells: 6 hours) to induce apoptosis. The cells were cultured in RMPI-1640 medium (A549 and H460 cells) or DMEM (HeLa, L132 and RAW cells) containing antibiotics (penicillin and streptomycin) and 10% FBS. All the cells were subcultured every 3 or 4 days. The apoptosis-induced apoptotic cells were washed with PBS and blocked with 1% BSA at 37° C. for 30 minutes. Then, the cells were reacted with 10 μM of the peptide labeled with fluorescein, at 4° C. for 1 hour. After washing, the cells were reacted with an annexin V reaction buffer containing Alexa594-labeled annexin V (Molecular Probes), at room temperature for 15 minutes. The cells were washed with PBS and then fixed with 4% paraformaldehyde for 5 minutes. Thereafter, after counterstaining using the nuclear stain 4′,6-diamidino-2-phenylindole (DAPI), followed by treatment with a mounting solution (Molecular Probes), images of the cells were obtained under a fluorescence microscope (Zeiss).
# [8] = 10 μM peptide 4° C. 1 hour, Alexa594-annexin V
# [9] = etoposide-treated apoptotic cells
substance,measurement,setting,value
"CSVAPR (also: fluorescein or Cy7.5 label) [ApoPep-2, peptide CSVAPR screened for endothelial cells; used fluorescein- or Cy7.5-labeled]",binding to normal cells (FACS),"[1]; A549 without etoposide, 10 μM, 4° C. or 37° C.",almost nonexistent or minimal
same,cells bound to the peptide at 4° C.,"[1]; etoposide 20 hours, peptide 10 μM, 4° C. 1 hour",28%
same,cells bound to the peptide at 37° C.,"[1]; etoposide 20 hours, peptide 10 μM, 37° C. 1 hour",48%
same,fluorescence signal from the tumor at 5 hours,[2],strong fluorescence signal
same,binding of fluorescence-labeled peptide after pre-treatment with unlabeled annexin V,apoptotic A549 cells,not inhibited
same,labeling of trail-treated apoptotic MDA-MB231 cells,"[3]; 50 ng/ml trail 16 hours, 10 μM fluorescein-labeled peptide 4° C. 1 hour, Alexa594-annexin V",strongly bound to the apoptotic cells; also recorded: labeling was observed
same,labeling of MDA-MB231 cells not treated with trail,[3]; [8],hardly bound to the untreated cells; also recorded: no labeling was observed
same,"location of peptide binding relative to annexin V binding (merge), MDA-MB231",[3]; trail-treated apoptotic cells,at the same locations
same,labeling of A549 cells not treated with etoposide,[4]; [8],hardly bound to the untreated cells; also recorded: no labeling was observed
same,labeling of etoposide-treated apoptotic A549 cells,"[4]; 50 μM etoposide 16 hours, 10 μM fluorescein-labeled peptide 4° C. 1 hour, Alexa594-annexin V",strongly bound to the apoptotic cells; also recorded: labeling was observed
same,"location of peptide binding relative to annexin V binding (merge), A549",[4]; [9],at the same locations
same,ex vivo fluorescence signal from the kidney,"[5]; 4 hours after peptide injection, all the groups, renal clearance",strong
same,"ex vivo fluorescence signal from the isolated tumor, doxorubicin treated group","[5]; 4 hours after peptide injection, compared to Dox− ApoPep-2 and Dox+ control peptide",strong
same,time at which the fluorescence signal from the tumor tissue was most strongly detected,"[5]; Cy7.5-labeled, doxorubicin treated group (5 mg/kg, 12 hours before)",2 h
same,"fluorescence signal from the tumor, doxorubicin treated group","[5]; Dox+, Cy7.5-labeled peptide 50 μM",targeted the tumor tissue
same,"fluorescence signal from the tumor, doxorubicin untreated group","[5]; Dox−, Cy7.5-labeled peptide 50 μM",targeting was not observed; also recorded: weakly detected
same,time from which fluorescence from the tumor was detected,"[5]; fluorescein-labeled, large tumor (1 cm or larger in diameter), no agent",2 h
"CQRPPR (also: fluorescein or Cy7.5 label) [ApoPep-1, peptide CQRPPR screened for macrophages; used fluorescein- or Cy7.5-labeled]","NIR fluorescence of the heart portion, myocardial ischemic rat versus control group (Sham) rat",[6],much stronger NIR fluorescence
same,labeling of normal cells not treated with etoposide,"[7]; 10 μM fluorescein-labeled peptide 4° C. 1 hour, Alexa594-annexin V",no labeling was observed
same,labeling of etoposide-treated apoptotic cells (fluorescence microscopy),"[7]; 50 μM etoposide, 10 μM fluorescein-labeled peptide 4° C. 1 hour, Alexa594-annexin V room temperature 15 minutes",labeling was observed
same,location of peptide binding relative to annexin V binding (merge),[7]; [9],at the same locations
